The source of these data is patent US11261175B2 (priority 2017, dated 2022).

Common to all, as to type: cell-based
The subject of test [1] is JFH5a-Rluc-ad34 virus (HCV GT-2a). Kind of test: Anti-HCV activity using HCVcc (JFH5a-Rluc-ad34 virus) in Huh 7.5.1 cells, Renilla luciferase readout. The settings on record: Hepatitis C virus, GT2A, Huh-7.5.1, 72 h, read-out: HCV wt. GT-2a. As to the method: <Experimental Example 1> Measurement of Anti-HCV Activity of Compounds of Examples Using HCVcc
Step 1: Cell Line and Cell Culture
Huh 7.5.1 cells were grown in Dulbecco's Modified Eagle's medium (DMEM; Gibco) supplemented with antibiotics (100 U/mL penicillin, 10 μg/mL streptomycin) and 10% heat-inactivated fetal bovine serum (ΔFBS; PEAK) in a CO2 incubator at 37° C. with […].
Huh7.5.1 cells were transfected with in vitro transcription RNA of JFH5a-Rluc-ad34, a derivative of JFH1 with adaptive mutations in E2 and p7 regions, by electroporation. JFH5a-Rluc-ad34 virus contains Renilla luciferase (Rluc), which is convenient for virus proliferation assay. The cell culture medium containing HCV was collected 3-5 days after the electroporation and then filtered through a […] pore size filter.
Step 3: Antiviral Activity Test Using Infectious HCV Particles
Huh 7.5.1 cells were inoculated with JFH5a-Rluc-ad34 virus and incubated for 4 hours. Four hours after the virus inoculation, the Huh7.5.1 cells infected with HCV were cultured in the medium containing the compound of examples serially diluted. Three days later, the cells were harvested and the intracellular luciferase activity was measured using Renilla luciferase assay system (Promega). Finally, the luciferase activity was normalized with those obtained from the negative control cells (mock-treated cells).

The test system of test [2] is HCV genotype 1b replicon with NS5A Y93H mutation. Kind of test: Transiently transfected assay of genotype 1b resistance mutant RNA Y93H. The settings on record: Hepatitis C virus, Huh-7.5.1, 72 h, read-out: HCV Mutation Y93H. The text has this: (§1) <Experimental Example 3> Transiently Transfected Assay of Genotype 1b Resistance Mutant RNAs
(§2) Replicon genomes substituted with Y93H, L31V and L31V+Y93H (double mutant), the resistance mutants to Daclatasvir with mutations at the NS5A protein domain 1.
(§3) These HCV resistance mutant genomes were linearized with scal restriction enzyme, and then the mutated HCV RNA was synthesized through in vitro transcription. Huh 7.5.1 cells were individually electroporated with HCV RNA with resistant mutations and plated in a 12 well plate. After 4 hours, Huh7.5.1 cells were seeded in DMEM containing the compounds of examples serially diluted for 3 days. Three days later, the cells were harvested and the intracellular luciferase activity was measured. The luciferase activity was normalized with those obtained from the negative control cells (mock-treated cells).

Test [3] deals with HCV genotype 1b replicon with NS5A L31V mutation. The test is described as follows: Transiently transfected assay of genotype 1b resistance mutant RNA L31V. Particulars: Hepatitis C virus, Huh-7.5.1, 72 h, read-out: HCV Mutation L31V.
Excerpt: as §1, §2, §3

For test [4], the system named is HCV genotype 1b replicon with NS5A L31V+Y93H (double mutant). The test is described as follows: Transiently transfected assay of genotype 1b resistance mutant RNA L31V+Y93H (double mutant). The settings on record: Hepatitis C virus, Huh-7.5.1, 72 h, read-out: HCV Mutation L31V + Y93H.
Excerpt: as §1, §2, §3

Test [5] has as its system HCV replicon NK5.1-Gluc (genotype 1b). Kind of test: Anti-HCV activity using HCV replicon NK5.1-Gluc (genotype 1b) in Huh 7.5.1 cells, luciferase readout. Particulars: Hepatitis C virus, 72 h; Huh 7.5.1 cells with NK5.1-Gluc replicon, 3 days, Gaussia luciferase; read-out: HCV wt. GT-1b. Background: In antiviral work, replicon cells carry a viral genome segment that copies itself.

For test [6], the system named is HCV replicon S52-Feo (genotype 3a). The test is described as follows: Anti-HCV activity using HCV replicon S52-Feo (genotype 3a) in Huh 7.5.1 cells, luciferase readout. Particulars: Hepatitis C virus, 72 h; Huh 7.5.1 cells with S52-Feo replicon, 3 days, firefly luciferase; read-out: HCV wt. GT-3a.

Regarding `CCCCC1(CCCC)c2cc(NC(=O)[C@@H]3C[C@@H](OC)CN3C(=O)[C@H](NC(=O)OC)c3ccccc3)ccc2-c2ccc(NC(=O)[C@@H]3C[C@@H](OC)CN3C(=O)[C@H](NC(=O)OC)c3ccccc3)cc21` [Example 39, dimethyl (1R,1′R)-2,2′-((3R,3′R,5S,5′S)-5,5′-(9,9-dibutyl-9H-fluorene-2,7-diyl)bis(azanediyl)bis(oxomethylene)bis(3-methoxypyrrolidine-5,1-diyl))bis(2-oxo-1-phenylethane-2,1-diyl)dicarbamate], the EC50 was 1 to 100 nM in test [1]; 0.01 to 0.1 nM in test [2]; 0.001 to 0.01 nM in test [3]; 1 to 100 nM in test [4]; 0.01 to 0.1 nM in test [5]; 0.1 to 1 nM in test [6].
Take `CCCCC1(CCCC)c2cc(NC(=O)[C@@H]3C[C@H]4CCC[C@H]4N3C(=O)[C@H](NC(=O)OC)c3ccccc3)ccc2-c2ccc(-c3cnc([C@@H]4CCCN4C(=O)[C@@H](NC(=O)OC)C(C)C)[nH]3)cc21` [Example 28, methyl ((S)-1-((S)-2-(5-(9,9-dibutyl-7-((2S,3aR,6aR)-1-((R)-2-((methoxycarbonyl)amino)-2-phenylacetyl)octahydrocyclopenta[b]pyrrole-2-carboxyamido)-9H-fluorene-2-yl)-1H-imidazole-2-yl)pyrrolidine-1-yl)-3-methyl-1-oxobutane-2-yl)carbamate]: the EC50 in test [1] is 0.01 to 0.1 nM; in test [2], 0.1 to 1 nM; in test [3] it was 0.01 to 0.1 nM; in test [4], more than 100 nM; in test [5], 0.001 to 0.01 nM; in test [6], 0.01 to 0.1 nM.
For `CCCCCC1(CCCCC)c2cc(NC(=O)[C@@H]3CCCN3C(=O)[C@H](NC(=O)OC)c3ccccc3)ccc2-c2ccc(NC(=O)[C@@H]3CC(=O)CN3C(=O)[C@H](NC(=O)OC)c3ccccc3)cc21` [Example 19, methyl ((R)-2-((S)-2-((7-((S)-1-((R)-2-((methoxycarbonyl)amino)-2-phenylacetyl)pyrrolidine-2-carboxyamido)-9,9-dipentyl-9H-fluorene-2-yl)carbamoyl)-4-oxopyrrolidine-1-yl)-2-oxo-1-phenylethyl)carbamate], the EC50 in test [1] was in the range of 1 to 100 nM; in test [2], 0.1 to 1 nM; in test [3], 0.01 to 0.1 nM; in test [4], 1 to 100 nM; in test [5], 0.01 to 0.1 nM; in test [6], 1 to 100 nM.
As to `CCCCC1(CCCC)c2cc(NC(=O)[C@@H]3CC4(CC4)CN3C(=O)[C@H](NC(=O)OC)c3ccccc3)ccc2-c2ccc(-c3cnc([C@@H]4CCCN4C(=O)[C@@H](NC(=O)OC)C(C)C)[nH]3)cc21` [Example 26, methyl ((S)-1-((S)-2-(5-(9,9-dibutyl-7-((S)-5-((R)-2-((methoxycarbonyl)amino)-2-phenylacetyl)-5-azaspiro[2.4]heptane-6-carboxyamido)-9H-fluorene-2-yl)-1H-imidazole-2-yl)pyrrolidine-1-yl)-3-methyl-1-oxobutane-2-yl)carbamate], the EC50 in test [1] is 0.01 to 0.1 nM; in test [2] it was 0.1 to 1 nM; in test [3] it was 0.01 to 0.1 nM; in test [4], more than 100 nM; in test [5], 0.001 to 0.01 nM; in test [6], 0.01 to 0.1 nM.
Take `CCCCCC1(CCCCC)c2cc(NC(=O)[C@@H]3CC(=O)CN3C(=O)[C@H](NC(=O)OC)c3ccccc3)ccc2-c2ccc(NC(=O)[C@@H]3CC(=O)CN3C(=O)[C@H](NC(=O)OC)c3ccccc3)cc21` [Example 17, dimethyl ((1R,1′R)-((5S,5′S)-(((9,9-dipentyl-9H-fluorene-2,7-diyl)bis(azanediyl))bis(carbonyl))bis(3-oxopyrrolidine-5,1-diyl))bis(2-oxo-1-phenylethane-2,1-diyl))dicarbamate]: the EC50 was 1 to 100 nM in test [1]; 0.1 to 1 nM in test [2]; 0.001 to 0.01 nM in test [3]; 1 to 100 nM in test [4]; 0.001 to 0.01 nM in test [5]; 0.01 to 0.1 nM in test [6].
As to `CCCCC1(CCCC)c2cc(NC(=O)[C@@H]3CC4(CC4)CN3C(=O)[C@H](NC(=O)OC)c3ccccc3)ccc2-c2ccc(NC(=O)[C@@H]3C[C@H]4CCC[C@H]4N3C(=O)[C@H](NC(=O)OC)c3ccccc3)cc21` [Example 25, methyl ((R)-2-((S)-6-((9,9-dibutyl-7-((2S,3aR,6aR)-1-((R)-2-((methoxycarbonyl)amino)-2-phenylacetyl)octahydrocyclopenta[b]pyrrole-2-carboxyamido)-9H-fluorene-2-yl)carbamoyl)-5-azaspiro[2.4]heptane-5-yl)-2-oxo-1-phenylethyl)carbamate], the EC50 in test [1] was 1 to 100 nM; in test [2] it was 1 to 100 nM; in test [3], 0.001 to 0.01 nM; in test [4], 1 to 100 nM; in test [5] it was 0.001 to 0.01 nM; in test [6] it was 0.01 to 0.1 nM.
`CCC1(CC)c2cc(NC(=O)[C@@H]3CCCN3C(=O)[C@H](NC(=O)OC)c3ccccc3)ccc2-c2ccc(NC(=O)[C@@H]3CCCN3C(=O)[C@H](NC(=O)OC)c3ccccc3)cc21` [Example 30, dimethyl (1R,1′R)-2,2′-((2S,2′S)-2,2′-(9,9-diethyl-9H-fluorene-2,7-diyl)bis(azanediyl)bis(oxomethylene)bis(pyrrolidine-2,1-diyl))bis(2-oxo-1-phenylethane-2,1-diyl)dicarbamate]: the EC50 in test [1] was 0.1 to 1 nM; in test [2], 1 to 100 nM; in test [3] it was 0.1 to 1 nM; in test [4] it was more than 100 nM; in test [5] it was 0.01 to 0.1 nM; in test [6], 0.1 to 1 nM.
In the case of `CCCCC1(CCCC)c2cc(NC(=O)[C@@H]3CC(F)(F)CN3C(=O)[C@H](NC(=O)OC)c3ccccc3)ccc2-c2ccc(NC(=O)[C@@H]3CC4(CC4)CN3C(=O)[C@H](NC(=O)OC)c3ccccc3)cc21` [Example 23], the EC50 in test [2] was 1 to 100 nM; in test [3], 0.001 to 0.01 nM; in test [4], more than 100 nM.
For `CCCCC1(CCCC)c2cc(NC(=O)[C@@H]3CC(F)(F)CN3C(=O)[C@H](NC(=O)OC)c3ccccc3)ccc2-c2ccc(NC(=O)[C@@H]3C[C@@H]4CCC[C@@H]4N3C(=O)[C@H](NC(=O)OC)c3ccccc3)cc21` [Example 24], the EC50 in test [2] is 1 to 100 nM; in test [3], 0.001 to 0.01 nM; in test [4], 1 to 100 nM.
As to `CCCCC1(CCCC)c2cc(NC(=O)[C@@H]3CC(F)(F)CN3C(=O)[C@H](NC(=O)OC)c3ccccc3)ccc2-c2ccc(NC(=O)[C@@H]3CC(F)(F)CN3C(=O)[C@H](NC(=O)OC)c3ccccc3)cc21` [Example 20, dimethyl ((1R,1′R)-((5S,5′S)-(((9,9-dibutyl-9H-fluorene-2,7-diyl)bis(azanediyl))bis(carbonyl))bis(3,3-difluoropyrrolidine-5,1-diyl))bis(2-oxo-1-phenylethane-2,1-diyl))dicarbamate], the EC50 was in the range of 1 to 100 nM in test [1]; 1 to 100 nM in test [2]; 0.01 to 0.1 nM in test [3]; 0.001 to 0.01 nM in test [5]; 0.01 to 0.1 nM in test [6].
